What was measured:
[1] = biological target: T1, sst4 (Homo sapiens, UniProt P31391); test: GPCR Profiler; type: cell-based
T1 construct: host or cells: Chem-1 cells with Gα15

[2] = biological target: T2, S1P2 (Homo sapiens, UniProt O95136); test: GPCR Profiler; type: cell-based
T2 construct: host or cells: Chem-1 cells with Gα15

[3] = biological target: T3, ETB (Homo sapiens, UniProt P24530); test: GPCR Profiler; type: cell-based
T3 construct: host or cells: Chem-1 cells expressing Gα15

[4] = biological target: T4, GCN2(Kin.Dom.2, S808G) (Homo sapiens, UniProt Q9P2K8, S808G); test: KinomeScan; type: binding; details: read-out: % Control
T4 construct: GCN2(Kin.Dom.2, S808G); purchased DiscoveRx (Fremont, CA)

[5] = biological target: T5, EP2 (Homo sapiens, UniProt P43116); test: GPCR Profiler; type: cell-based
T5 construct: host or cells: Chem-1 cells expressing Gα15
T5 sequence (P43116 whole entry): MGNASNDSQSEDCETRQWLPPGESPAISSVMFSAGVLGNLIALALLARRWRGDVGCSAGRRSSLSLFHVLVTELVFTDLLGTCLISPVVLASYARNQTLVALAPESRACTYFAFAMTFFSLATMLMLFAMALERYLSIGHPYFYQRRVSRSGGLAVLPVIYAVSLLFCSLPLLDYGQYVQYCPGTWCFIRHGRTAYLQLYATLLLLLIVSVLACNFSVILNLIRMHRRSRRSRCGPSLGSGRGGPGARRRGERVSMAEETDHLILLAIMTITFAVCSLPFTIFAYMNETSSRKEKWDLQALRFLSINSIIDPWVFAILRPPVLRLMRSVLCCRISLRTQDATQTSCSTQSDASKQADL

[6] = biological target: T6, PKMYT1 (Homo sapiens, UniProt Q99640); test: KinomeScan; type: binding; details: read-out: % Control
T6 construct: purchased DiscoveRx (Fremont, CA)

[7] = biological target: T7, ADRA1B (Homo sapiens, UniProt P35368); test: GPCR Profiler; type: cell-based
T7 construct: host or cells: Chem-1 cells with promiscuous Gα15
T7 sequence (P35368 whole entry, species assumed): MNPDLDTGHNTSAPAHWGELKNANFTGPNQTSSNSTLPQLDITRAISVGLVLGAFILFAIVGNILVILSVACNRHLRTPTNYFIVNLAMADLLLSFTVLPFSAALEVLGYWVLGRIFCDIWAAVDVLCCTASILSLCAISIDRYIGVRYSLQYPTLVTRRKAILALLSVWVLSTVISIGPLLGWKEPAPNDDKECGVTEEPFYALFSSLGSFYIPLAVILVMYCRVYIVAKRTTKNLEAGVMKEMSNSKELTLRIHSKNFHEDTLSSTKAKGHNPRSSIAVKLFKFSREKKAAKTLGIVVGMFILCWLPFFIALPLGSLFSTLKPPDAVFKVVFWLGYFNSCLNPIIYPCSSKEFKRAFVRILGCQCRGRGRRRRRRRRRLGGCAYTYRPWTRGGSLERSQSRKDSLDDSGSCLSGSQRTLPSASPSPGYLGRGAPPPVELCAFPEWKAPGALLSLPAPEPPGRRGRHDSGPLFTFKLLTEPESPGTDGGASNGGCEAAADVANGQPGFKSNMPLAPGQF

[8] = biological target: T8, RSK1(Kin.Dom.2-C-terminal) (Homo sapiens, UniProt Q15418); test: KinomeScan; type: binding; details: read-out: % Control
T8 construct: RSK1(Kin.Dom.2-C-terminal); purchased DiscoveRx (Fremont, CA)

[9] = biological target: T9, KIT(V559D, V654A) (Homo sapiens, UniProt P10721, V559D/V654A); test: KinomeScan; type: binding; details: read-out: % Control
T9 construct: purchased DiscoveRx
T9 sequence (P10721 26-976 V559D/V654A): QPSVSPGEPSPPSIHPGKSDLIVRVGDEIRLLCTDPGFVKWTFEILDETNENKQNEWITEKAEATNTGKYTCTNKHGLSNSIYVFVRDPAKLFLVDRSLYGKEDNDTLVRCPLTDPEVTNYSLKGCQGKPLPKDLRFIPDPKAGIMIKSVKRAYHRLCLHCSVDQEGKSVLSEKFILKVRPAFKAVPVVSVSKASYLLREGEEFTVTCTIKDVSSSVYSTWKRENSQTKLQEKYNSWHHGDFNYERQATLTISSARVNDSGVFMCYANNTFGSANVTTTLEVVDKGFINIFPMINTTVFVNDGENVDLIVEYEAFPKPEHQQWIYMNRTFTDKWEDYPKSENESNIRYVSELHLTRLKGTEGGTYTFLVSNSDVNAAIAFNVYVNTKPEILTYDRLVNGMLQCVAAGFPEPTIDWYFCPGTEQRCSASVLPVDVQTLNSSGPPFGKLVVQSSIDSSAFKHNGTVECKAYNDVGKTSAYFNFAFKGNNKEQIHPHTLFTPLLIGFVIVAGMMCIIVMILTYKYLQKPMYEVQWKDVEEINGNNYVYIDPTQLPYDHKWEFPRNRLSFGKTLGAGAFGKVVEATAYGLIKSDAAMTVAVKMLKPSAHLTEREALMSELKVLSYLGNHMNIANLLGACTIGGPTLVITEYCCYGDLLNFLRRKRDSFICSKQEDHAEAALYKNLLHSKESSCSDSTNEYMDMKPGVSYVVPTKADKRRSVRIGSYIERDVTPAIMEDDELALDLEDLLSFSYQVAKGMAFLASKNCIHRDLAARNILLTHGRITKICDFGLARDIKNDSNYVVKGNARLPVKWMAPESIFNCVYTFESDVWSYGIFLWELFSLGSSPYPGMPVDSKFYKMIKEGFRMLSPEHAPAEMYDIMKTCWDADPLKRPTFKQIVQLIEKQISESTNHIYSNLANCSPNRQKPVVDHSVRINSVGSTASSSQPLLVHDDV

[10] = biological target: T10, CAMKK1 (Homo sapiens, UniProt Q8N5S9); test: KinomeScan; type: binding; details: read-out: % Control
T10 construct: purchased DiscoveRx (KinomeScan service)

[11] = biological target: T11, SRC (Homo sapiens, UniProt P12931); test: KinomeScan; type: binding; details: read-out: % Control
T11 construct: purchased DiscoveRx (Fremont, CA)

[12] = biological target: T12, GPR99 (Homo sapiens, UniProt Q96P68); test: GPCR Profiler; type: cell-based
T12 construct: host or cells: Chem-1 cells with promiscuous Gα15

[13] = biological target: T13, PAK3 (Homo sapiens, UniProt O75914); test: KinomeScan; type: binding; details: read-out: % Control
T13 construct: purchased DiscoveRx
T13 sequence (O75914 whole entry): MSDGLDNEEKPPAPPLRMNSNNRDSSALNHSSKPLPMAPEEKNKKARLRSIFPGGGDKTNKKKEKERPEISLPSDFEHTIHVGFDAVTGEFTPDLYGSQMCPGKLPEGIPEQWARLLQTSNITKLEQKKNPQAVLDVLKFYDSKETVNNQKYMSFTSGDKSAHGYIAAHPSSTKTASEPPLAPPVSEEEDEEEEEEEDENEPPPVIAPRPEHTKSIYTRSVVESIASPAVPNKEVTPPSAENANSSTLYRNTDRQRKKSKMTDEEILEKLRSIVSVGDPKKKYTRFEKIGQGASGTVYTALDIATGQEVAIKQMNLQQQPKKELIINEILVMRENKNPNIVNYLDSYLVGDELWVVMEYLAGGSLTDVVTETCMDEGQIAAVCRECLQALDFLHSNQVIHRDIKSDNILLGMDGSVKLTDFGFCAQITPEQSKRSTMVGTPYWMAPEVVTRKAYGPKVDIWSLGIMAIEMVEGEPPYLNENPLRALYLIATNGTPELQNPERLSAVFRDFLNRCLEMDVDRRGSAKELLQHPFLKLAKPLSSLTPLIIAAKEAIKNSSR

[14] = biological target: T14, LOK (Homo sapiens, UniProt O94804); test: KinomeScan; type: binding; details: read-out: % Control
T14 construct: purchased DiscoveRx

[15] = biological target: T15, MET (Homo sapiens, UniProt P08581); test: KinomeScan; type: binding; details: read-out: % Control
T15 construct: purchased DiscoveRx (Fremont, CA)

[16] = biological target: T16, ERK2 (Homo sapiens, UniProt P28482); test: KinomeScan; type: binding; details: read-out: % Control
T16 construct: purchased DiscoveRx (Fremont, CA)
T16 sequence (P28482 whole entry): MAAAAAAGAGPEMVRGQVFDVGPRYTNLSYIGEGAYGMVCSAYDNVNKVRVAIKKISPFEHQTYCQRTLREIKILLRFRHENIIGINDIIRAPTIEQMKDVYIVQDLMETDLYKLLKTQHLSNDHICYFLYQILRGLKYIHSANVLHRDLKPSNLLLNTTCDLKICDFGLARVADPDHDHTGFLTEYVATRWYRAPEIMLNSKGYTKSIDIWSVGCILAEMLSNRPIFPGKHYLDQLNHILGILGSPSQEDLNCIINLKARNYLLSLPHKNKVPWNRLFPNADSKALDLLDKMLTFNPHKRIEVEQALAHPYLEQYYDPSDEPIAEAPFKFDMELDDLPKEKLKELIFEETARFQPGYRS

[17] = biological target: T17, TTK (Homo sapiens, UniProt P33981); test: KinomeScan; type: binding; details: read-out: % Control
T17 construct: purchased DiscoveRx

[18] = biological target: T18, TRKB (Homo sapiens, UniProt Q16620); test: KinomeScan; type: binding; details: read-out: % Control
T18 construct: purchased DiscoveRx (Fremont, CA)

[19] = biological target: T19, PHKG2 (Homo sapiens, UniProt P15735); test: KinomeScan; type: binding; details: read-out: % Control
T19 construct: purchased DiscoveRx (Fremont, CA)
T19 sequence (P15735 whole entry): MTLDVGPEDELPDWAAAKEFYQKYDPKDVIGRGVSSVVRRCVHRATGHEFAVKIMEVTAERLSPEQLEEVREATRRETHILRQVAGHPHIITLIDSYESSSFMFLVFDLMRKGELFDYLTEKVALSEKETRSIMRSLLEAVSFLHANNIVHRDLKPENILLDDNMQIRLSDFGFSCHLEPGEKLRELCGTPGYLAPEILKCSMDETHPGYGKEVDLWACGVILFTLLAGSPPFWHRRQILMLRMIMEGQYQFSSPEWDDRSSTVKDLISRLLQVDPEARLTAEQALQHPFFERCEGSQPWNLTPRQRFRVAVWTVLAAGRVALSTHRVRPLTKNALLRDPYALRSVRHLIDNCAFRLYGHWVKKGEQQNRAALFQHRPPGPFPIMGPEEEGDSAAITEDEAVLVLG

[20] = biological target: T20, MEK5 (Homo sapiens, UniProt Q13163); test: KinomeScan; type: binding; details: read-out: % Control
T20 construct: purchased DiscoveRx (Fremont, CA)
T20 sequence (Q13163 whole entry): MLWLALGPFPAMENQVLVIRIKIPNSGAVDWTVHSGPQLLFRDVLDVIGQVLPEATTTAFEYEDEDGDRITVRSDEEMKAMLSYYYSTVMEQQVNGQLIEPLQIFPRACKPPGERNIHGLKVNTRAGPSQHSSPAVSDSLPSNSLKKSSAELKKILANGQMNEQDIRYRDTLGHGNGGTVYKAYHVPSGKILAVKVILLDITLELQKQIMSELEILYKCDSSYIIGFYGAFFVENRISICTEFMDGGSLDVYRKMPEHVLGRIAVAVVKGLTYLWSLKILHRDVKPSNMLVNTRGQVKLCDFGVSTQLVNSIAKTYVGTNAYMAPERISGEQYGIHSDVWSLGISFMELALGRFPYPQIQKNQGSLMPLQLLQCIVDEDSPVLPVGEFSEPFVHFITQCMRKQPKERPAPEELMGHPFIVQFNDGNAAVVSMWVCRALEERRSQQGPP

[21] = biological target: T21, TNK1 (Homo sapiens, UniProt Q13470); test: KinomeScan; type: binding; details: read-out: % Control
T21 construct: purchased DiscoveRx (Fremont, CA)

[22] = biological target: T22, DYRK1B (Homo sapiens, UniProt Q9Y463); test: KinomeScan; type: binding; details: read-out: % Control
T22 construct: purchased DiscoveRx (Fremont, CA), KinomeScan service

[23] = biological target: T23, HIPK2 (Homo sapiens, UniProt Q9H2X6); test: KinomeScan; type: binding; details: read-out: % Control
T23 construct: purchased DiscoveRx (Fremont, CA)

T1 sequence (P31391 whole entry, species assumed): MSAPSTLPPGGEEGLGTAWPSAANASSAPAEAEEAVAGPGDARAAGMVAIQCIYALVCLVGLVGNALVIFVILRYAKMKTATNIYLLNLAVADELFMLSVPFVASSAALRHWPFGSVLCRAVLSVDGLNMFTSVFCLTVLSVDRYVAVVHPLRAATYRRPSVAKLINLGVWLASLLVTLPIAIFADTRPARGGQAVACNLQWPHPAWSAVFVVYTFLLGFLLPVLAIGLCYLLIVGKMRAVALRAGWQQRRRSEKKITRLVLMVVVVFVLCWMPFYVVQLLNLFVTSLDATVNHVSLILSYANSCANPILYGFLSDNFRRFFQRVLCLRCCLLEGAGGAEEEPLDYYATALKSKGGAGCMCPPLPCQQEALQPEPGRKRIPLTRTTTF
T3 sequence (P24530 27-442): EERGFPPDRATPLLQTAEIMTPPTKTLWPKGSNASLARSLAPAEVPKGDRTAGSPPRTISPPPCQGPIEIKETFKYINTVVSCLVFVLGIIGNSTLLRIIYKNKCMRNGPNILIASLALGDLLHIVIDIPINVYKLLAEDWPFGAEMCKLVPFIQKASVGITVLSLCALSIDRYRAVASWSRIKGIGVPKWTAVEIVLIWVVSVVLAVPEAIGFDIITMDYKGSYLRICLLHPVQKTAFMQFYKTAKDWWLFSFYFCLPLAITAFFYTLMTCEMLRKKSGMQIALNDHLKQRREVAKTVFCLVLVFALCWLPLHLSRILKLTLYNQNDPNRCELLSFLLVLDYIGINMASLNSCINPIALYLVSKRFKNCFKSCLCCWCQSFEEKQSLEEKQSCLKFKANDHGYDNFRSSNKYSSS
T2 sequence (O95136 whole entry, species assumed): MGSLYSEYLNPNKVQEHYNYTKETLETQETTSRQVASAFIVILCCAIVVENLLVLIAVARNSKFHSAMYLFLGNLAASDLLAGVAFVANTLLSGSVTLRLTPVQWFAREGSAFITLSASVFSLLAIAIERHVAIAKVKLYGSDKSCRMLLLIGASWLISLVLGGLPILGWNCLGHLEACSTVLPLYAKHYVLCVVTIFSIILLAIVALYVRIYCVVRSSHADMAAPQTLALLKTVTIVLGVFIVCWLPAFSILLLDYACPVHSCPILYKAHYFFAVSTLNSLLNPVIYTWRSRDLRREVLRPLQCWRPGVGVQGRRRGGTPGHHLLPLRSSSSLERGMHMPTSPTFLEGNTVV

## CCc1ccc2c(c1)C1(NN=C(c3cccc4ccccc34)S1)C(=O)N2 (centres unmarked) [OGM1, 5-ethyl-5′-naphthalen-1-ylspiro[1H-indole-3,2′-3H-1,3,4-thiadiazole]-2-one]
[1]; 10 uM
  Antagonism: −2.6
[1]; 12.5 uM
  Agonism: −1.1
[2]; 10 uM
  Antagonism: −3.3
[2]; 12.5 uM
  Agonism: 0.5
[3]; 10 uM
  Antagonism: −1.6
[3]; 12.5 uM
  Agonism: 9.1
[4]
  remaining binding at 10 µM: 100%
[5]; 10 uM
  Antagonism: 7
[5]; 12.5 uM
  Agonism: −0.2
[6]
  remaining binding at 10 µM: 78%
[7]; 10 uM
  Antagonism: 1
[7]; 12.5 uM
  Agonism: 0.1
[8]
  remaining binding at 10 µM: 73%
[9]
  remaining binding at 10 µM: 100%
[10]
  remaining binding at 10 µM: 86%
[11]
  remaining binding at 10 µM: 95%
[12]; 10 uM
  Antagonism: 0.5
[12]; 12.5 uM
  Agonism: 6.5
[13]
  remaining binding at 10 µM: 93%
[14]
  remaining binding at 10 µM: 100%
[15]
  remaining binding at 10 µM: 100%
[16]
  remaining binding at 10 µM: 77%
[17]
  remaining binding at 10 µM: 75%
[18]
  remaining binding at 10 µM: 51%
[19]
  remaining binding at 10 µM: 71%
[20]
  remaining binding at 10 µM: 92%
[21]
  remaining binding at 10 µM: 100%
[22]
  remaining binding at 10 µM: 58%
[23]
  remaining binding at 10 µM: 100%
